Test [1] addresses T1, recombinant HCV E2 protein (Con1eE2, eE2) (Hepatitis C virus (isolate Con1), UniProt Q9WMX2).
T1 construct: E2 ectodomain residues 384-656 cut from the HCV genome polyprotein; C-terminal Protein A tag removed by PreScission protease; secreted from HEK293T cells (lentiviral)
The test can be described thus: SPR single concentration screen (Biacore T100, CM5 chip). The settings on record: 200 µM ligand in PBS; E2 immobilised by amine coupling (about 10,000 RU). Type of test: binding. The source says:
SPR single concentration screen (Biacore T100, CM5 chip) on recombinant HCV E2 protein (Con1eE2, eE2)
For orientation: In SPR one partner is held on a chip, and binding of the other changes the refractive index at the surface.

Test [2] has as its target HCV E2 protein Con1 eE2 (envelope protein 2 ectodomain, amino acids 384-656) (Hepatitis C virus, isolate Con1 (genotype 1)) (UniProt Q9WMX2). The test is described as follows: SPR; Biacore T100; HCV E2 (1 µM in 10 mM sodium acetate pH 5) immobilised on a CM5 chip by amine coupling, about 10,000 RU; his-CD81 (50 nM) in PBS injected as positive control.
In test [3] the target is T1, recombinant HCV E2 protein (Con1eE2, eE2). The test is described as follows: SPR single cycle kinetics (Biacore T100, CM5 chip). Type of test: binding.
For a further test, the target named is T2, his-tagged CD81-LEL (Homo sapiens, UniProt P60033).
T2 construct: His-tagged, commercial (Bioclone Inc.)
T2 sequence (P60033 113-201 limits assumed): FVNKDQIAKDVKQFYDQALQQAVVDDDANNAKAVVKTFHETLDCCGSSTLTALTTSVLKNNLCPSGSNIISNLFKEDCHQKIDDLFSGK
The test can be described thus: SPR single cycle kinetics (Biacore T100, CM5 chip). Type of test: binding.

In test [4] the target is T3, HCV E2 protein binding to GST-tagged human CD81-LEL (Hepatitis C virus (isolate Con1), UniProt Q9WMX2).
T3 construct: with CD81 antigen (Homo sapiens)
T3 sequence (Q9WMX2 384-656, one chain of several): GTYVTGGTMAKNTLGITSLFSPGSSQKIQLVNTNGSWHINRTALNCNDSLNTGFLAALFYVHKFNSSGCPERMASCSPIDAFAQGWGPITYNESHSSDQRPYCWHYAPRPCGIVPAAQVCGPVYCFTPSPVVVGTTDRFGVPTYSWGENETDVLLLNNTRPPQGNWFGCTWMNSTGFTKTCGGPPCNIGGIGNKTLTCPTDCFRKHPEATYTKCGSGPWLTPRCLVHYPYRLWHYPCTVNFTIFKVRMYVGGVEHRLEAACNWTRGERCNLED
The test can be described thus: ELISA, inhibition of E2 binding to immobilised CD81-LEL. (In an ELISA, binding on a coated surface is turned into a signal by an enzyme label.)

T1 sequence (Q9WMX2 384-656): as the sequence (Q9WMX2 384-656, one chain of several) above
Chain of HCV E2 protein Con1 eE2 (envelope protein 2 ectodomain, amino acids 384-656) (Hepatitis C virus, isolate Con1 (genotype 1)) (Q9WMX2 384-656): as the sequence (Q9WMX2 384-656, one chain of several) above

On to `COc1ccc(C2=CC(c3ccc(OC)c(OC)c3)c3c(c4ccccc4oc3=O)O2)cc1OC` (stereo not drawn) [compound 211490, NSC# 211490], for which, in test [1], the “Binding (RU)” value was 102.9 RU.

As for NSC# 144694 [compound 144694], in test [1], the “Binding (RU)” value is 118.8 RU.

In the case of `Nc1nc(N)nc(-c2ccccc2-c2nc(N)nc(N)n2)n1` [compound 4429, NSC# 4429], in test [1], the “Binding (RU)” value came out at 155.3 RU.

The compound “His-CD81-LEL (large extracellular loop of CD81, his-tagged) (domain or fragment)” came in with a response units bound in test [2] of 106 RU.

As for `Cc1nc(/N=C(/N)N(C)C)[nH]c(=O)c1C` [compound 113486, NSC# 113486], in test [1], the “Binding (RU)” value came to 104.7 RU.

For the compound `CC1(C)N=C(N)N=C(N)N1c1ccc(OCCCOc2ccccc2)c(Cl)c1.CCS(=O)(=O)O` [compound 133071, NSC# 133071], the “Binding (RU)” value in test [1] is 276.3 RU.

For `CSc1ccc2c(c1)C(N1CCN(C)CC1)Cc1ccccc1S2` (stereo not drawn) [compound 281816, 1-methyl-4-(3-methylsulfanyl-5,6-dihydrobenzo[b] [1]benzothiepin-5-yl)piperazine], the dissociation constant (Kd) in test [3] is 41 µM; on his-tagged CD81-LEL it was 57 µM. For the same compound, the half-inhibitory concentration (IC50) in test [4] is 0.2 to 0.5 µM.

What is called Kd is a measure of binding affinity in units of concentration. One may read the IC50 as the concentration that inhibits the measured activity by half. High values mean lower potency, low ones higher potency.

Source of the values: article PMC4214736, “Identification of a Novel Drug Lead That Inhibits HCV Infection and Cell-to-Cell Transmission by Targeting the HCV E2 Glycoprotein” (PLoS ONE, 2014).
